# According to patent US20250177340A1, “Tartaric Acid Analogs and Uses Thereof” (Lapix Therapeutics, Inc., priority 2021, published 2025):
# Columns and labels:
# Granzyme B and IFN-γ = assay: Dose-response of GranzymeB/IFN-γ double positivity in murine CD8+ T-cells, Example 9; format: cell-based, C57BL/6 mice; conditions: Mus musculus, T-cell
# Procedure: A dose-response analysis of compounds B-E in murine CD8+ T-cells was conducted to evaluate the effect of dose on GranzymeB/IFN-γ double positivity.
# Compound C, D and E were first dissolved in a small volume of DMSO before diluting to the final desired concentration.
# Splenocytes from naïve C57BL/6 mice were stained with CFSE, prepared, cultured, and dosed. Cells were seeded at 2×10^5 cells/well. Negative control was dosed with 10 ng/ml IL-2. After ConA stimulation (10 μg/ml), cells were dosed with log 3 dilution of each compound from 3×10^−9 to 30 µM in triplicates. All wells were dosed with 10 ng/ml of IL-2.
# Flow cytometer analysis was performed to assess percent CD8+ T-cells and percent activation by double staining for Granzyme B (GzmB) and IFN-γ as described in Example 7. Concentration versus response curve was fitted to a 4- or 5-parameter log-logistic model using the “dre” package in “R”. Both EC50 and EC90 were obtained by model fitting.
# KLRG-1 = assay: Percent KLRG-1+/CD8+ T-cells in splenocytes after a single dose, melanoma murine model; format: in vivo, mice
# Procedure: (§1) The pharmacodynamic (PD) effects of a single IV dose of Compound B in a melanoma murine model were evaluated. B16F10 melanoma cells were grown in RPMI 1640 media supplemented with 10% FBS and antibiotics (penicillin/streptomycin) using T75 flasks. When cells reached 70-80% confluency, they were treated with 3 ml of 0.25% Trypsin/EDTA. Afterward, detached cells were harvested. A single-cell suspension was prepared in PBS. An IV injection of 10^5 cells in mice marked day −3 of the experiment.
# (§2) Animals were housed four per cage, and had access to food and water ad libitum. Compound B was dissolved in sterile PBS, and pH was adjusted to approximately 7.5. Sterile PBS served as control.
# (§3) Three days after the IV injection of melanoma cells, animals in the baseline group (n=3) were sacrificed and their spleens were collected for KLRG-1, CTLA-4, and PD-1 analysis. At each predetermined time-point (24, 48, and 120 hours after dosing) three animals from each group were sacrificed for splenocyte analysis of KLRG-1, CTLA-4, and PD-1 expression levels, and expression levels were compared to baseline.
# (§4) Spleens collected for splenocyte analysis were prepared into a single-cell suspension for cellular phenotyping by flow cytometry. Cells were stained and gated for CD8. Percent KLRG-1+, CTLA-4+, and PD-1+ CD8+ T-cells were evaluated using flow cytometry.
# (§5) The PD effects of a single IV dose of Compound C were evaluated in a melanoma murine model conducted as described in Example 10. […] This study also evaluated whether Compound C was pharmacodynamically active orally.
# (§6) In a prior study, Compound C was dosed at 1 mg IV QD for seven days. […] A single PO dose was chosen to confirm oral activity of Compound C. Compound C was dissolved in DMSO, and then diluted in sterile PBS. pH was adjusted to approximately 7.5.
# (§7) The oral and intravenous PD effects of a single dose of Compound E were evaluated in a melanoma murine model conducted as described in Example 10.
# (§8) Compound E was dissolved in DMSO, and then diluted in sterile PBS. pH was adjusted to approximately 7.5.
# PD-1 [1] = assay: Percent PD-1+/CD8+ T-cells in splenocytes after a single dose, melanoma murine model; format: in vivo, mice
# Procedure: as §1, §2, §3, §4, §5, §6, §7, §8
# Oral bioavailability = format: in vivo; conditions: mouse, in vivo; suggested from 2.5 mg oral dose as efficacious as 0.25 mg IV; not evaluated in a PK study
# KLRG1 = assay: Percent KLRG1+ T-cells in spleens, single dose on Day 7 (Examples 17, 19, 20); format: in vivo, C57BL6 mice
# Procedure: (§9) Melanoma B16F10 cells were injected IV into C57BL6 mice on Day 0. On Day 7, mice were administered a single dose of 0.1 mg, 0.25 mg, or 1 mg of Compound E IV or 2.5 mg Compound E PO. One group was left untreated. Three mice at each time point were sacrificed, and their spleens were extracted. Percent KLRG1+ and PD-1^+ T-cells were quantified. Briefly, single-cell suspensions prepared from the extracted spleens were prepared and stained for KLRG1, PD-1 and CD8, and analyzed by flow cytometry.
# as §9, with “of 0.03 mg,” for “of”, “0.3 mg” for “0.25 mg,”, “mg” for “mg of”, “F” for “E”, “1” for “2.5”
# as §9, with “0.4” for “0.25”, “mg” for “mg of”, “G” for “E”, “1” for “2.5”
# PD-1 [2] = assay: Percent PD-1+ T-cells in spleens, single dose on Day 7 (Examples 17, 19, 20); format: in vivo, C57BL6 mice; conditions: E 0.1, 0.25, 1 mg IV or 2.5 mg PO, F 0.03-1 mg IV or 1 mg PO, G 0.1, 0.4, 1 mg IV or 1 mg PO
# Procedure: as §9
# as §9, with “of 0.03 mg,” for “of”, “0.3 mg” for “0.25 mg,”, “mg” for “mg of”, “F” for “E”, “1” for “2.5”
# as §9, with “0.4” for “0.25”, “mg” for “mg of”, “G” for “E”, “1” for “2.5”
# B16 F10 melanoma cells = assay: Tumor growth inhibition using Compound E (Example 18); format: in vivo, C57BL/6 mice; conditions: 0.3 or 3 mg orally daily for seven days
# Procedure: C57BL/6 mice received 10^5 B16 F10 melanoma cells via SC injection on day 0. At day 7, mice were treated orally with Compound E at 0.3 or 3 mg daily for seven days. Tumor growth inhibition was monitored until all untreated animals reached end point, defined as death by disease (found dead in the cage) or tumor size of 1,000 mm^3 or greater.
# [3] = 0.1 mg/mouse IV single dose, 24 h
# [4] = 0.1 mg/mouse IV single dose, 48 h
# [5] = 0.1 mg/mouse IV single dose, 120 h
# [6] = 0.25 mg/mouse IV single dose, 24 h
# [7] = 0.25 mg/mouse IV single dose, 48 h
# [8] = 0.25 mg/mouse IV single dose, 120 h
# [9] = 1 mg/mouse IV single dose, 24 h
# [10] = 1 mg/mouse IV single dose, 48 h
# [11] = 1 mg/mouse IV single dose, 120 h
# [12] = 2.5 mg/mouse po single dose, 24 h
# [13] = 2.5 mg/mouse po single dose, 48 h
# [14] = 2.5 mg/mouse po single dose, 120 h
structure (smiles),measurement,setting,value
"O=C(O)[C@H](O)[C@@H](O)C(=O)NCCC(c1ccccc1)c1ccccc1 [Compound E, (2R,3R)-4-((3,3-diphenylpropyl)amino)-2,3-dihydroxy-4-oxobutanoic acid]",EC50,Granzyme B and IFN-γ; 4-parameter model,93 nM
same,EC90,Granzyme B and IFN-γ; 4-parameter model,120000 nM
same,EC50,Granzyme B and IFN-γ; 5-parameter model,23 nM
same,EC90,Granzyme B and IFN-γ; 5-parameter model,600 nM
same,Emax,"Granzyme B and IFN-γ; FIG. 4, 5-parameter fit, read-out: maximal response (GzmB/IFN-γ double positive CD8+ T-cells)",~60%
same,"KLRG-1+/CD8+ T-cells, mean",KLRG-1; [3],0.7%
same,"KLRG-1+/CD8+ T-cells, mean",KLRG-1; [4],1.2%
same,"KLRG-1+/CD8+ T-cells, mean",KLRG-1; [5],1.0%
same,"KLRG-1+/CD8+ T-cells, mean",KLRG-1; [6],0.6%
same,"KLRG-1+/CD8+ T-cells, mean",KLRG-1; [7],0.9%
same,"KLRG-1+/CD8+ T-cells, mean",KLRG-1; [8],0.6%
same,"KLRG-1+/CD8+ T-cells, mean",KLRG-1; [9],1.3%
same,"KLRG-1+/CD8+ T-cells, mean",KLRG-1; [10],0.6%
same,"KLRG-1+/CD8+ T-cells, mean",KLRG-1; [11],1.2%
same,oral pharmacodynamic activity,KLRG-1; 2.5 mg PO single dose,effective after oral administration
same,"KLRG-1+/CD8+ T-cells, mean",KLRG-1; [12],0.6%
same,"KLRG-1+/CD8+ T-cells, mean",KLRG-1; [13],1.9%
same,"KLRG-1+/CD8+ T-cells, mean",KLRG-1; [14],1.2%
same,time of nadir of exhaustion markers after dosing,"KLRG-1; single dose, KLRG-1, CTLA-4, PD-1",24 h
same,"PD-1+/CD8+ T-cells, mean",PD-1 [1]; [3],35%
same,"PD-1+/CD8+ T-cells, mean",PD-1 [1]; [4],26%
same,"PD-1+/CD8+ T-cells, mean",PD-1 [1]; [5],37%
same,"PD-1+/CD8+ T-cells, mean",PD-1 [1]; [6],23%
same,"PD-1+/CD8+ T-cells, mean",PD-1 [1]; [7],26%
same,"PD-1+/CD8+ T-cells, mean",PD-1 [1]; [8],32%
same,"PD-1+/CD8+ T-cells, mean",PD-1 [1]; [9],23%
same,"PD-1+/CD8+ T-cells, mean",PD-1 [1]; [10],30%
same,"PD-1+/CD8+ T-cells, mean",PD-1 [1]; [11],29%
same,"PD-1+/CD8+ T-cells, mean",PD-1 [1]; [12],25%
same,"PD-1+/CD8+ T-cells, mean",PD-1 [1]; [13],32%
same,"PD-1+/CD8+ T-cells, mean",PD-1 [1]; [14],30%
same,decrease from baseline in PD-1+/CD8+ T-cell,"PD-1 [1]; single dose, 0.25 mg or higher, 24 hours",approximately 39%
same,bioavailability,Oral bioavailability,≥ 10%
same,"activity after oral administration (KLRG1+, PD1+ T-cells)","KLRG1; single PO dose: E 2.5 mg, F 1 mg, G 1 mg",effective after oral administration
same,percent KLRG1+ T-cells compared to untreated animals,"KLRG1; single dose, E 0.1, 0.25, 1 mg IV or 2.5 mg PO, F 0.03-1 mg IV or 1 mg PO, G 0.1, 0.4, 1 mg IV or 1 mg PO",reduction
same,percent PD1+ T-cells compared to untreated animals,PD-1 [2],reduction
same,tumor growth,B16 F10 melanoma cells,dose-dependent inhibition of tumor growth
